Legend:
Type in all cases: toxicity, cell-based
[1] = system: U2OS; experiment: Incucyte cell viability with U2OS; settings: human, 10 µM, compound concentration 10 uM
[2] = system: Fibroblast; experiment: Incucyte cell viability with human fibroblast; settings: 10 µM, compound concentration 10 uM
[3] = system: HEK-293T; experiment: Incucyte cell viability with HEK293T; settings: human, 10 µM, compound concentration 10 uM
[4] = 0 h, replicate number 1, timepoint 0 hours
[5] = 12 h, replicate number 1, timepoint 12 hours
[6] = 18 h, replicate number 1, timepoint 18 hours
[7] = 18 h, replicate number 2, timepoint 18 hours
[8] = 24 h, replicate number 1, timepoint 24 hours
[9] = 24 h, replicate number 2, timepoint 24 hours
[10] = 6 h, replicate number 1, timepoint 6 hours
[11] = 0 h, replicate number 2, timepoint 0 hours
Also: filed as whole numbers so only -1 and 0 and 1 occur.

CC(C)OC(=O)C1=CN(C(=O)c2ccc(F)c(F)c2)CC(C)(C)c2c1[nH]c1ccccc21 [TUROFEXORATE ISOPROPYL]
Growth Rate [1, 4]: 0
Growth Rate [1, 5]: 0
Growth Rate [1, 6]: 0
Growth Rate [1, 7]: 1
Growth Rate [1, 8]: 0
Growth Rate [1, 9]: 1
Growth Rate [2, 4]: 0
Growth Rate [2, 10]: 0
Growth Rate [2, 5]: 0
Growth Rate [2, 6]: 0
Growth Rate [2, 8]: 0
Growth Rate [3, 4]: 0
Growth Rate [3, 10]: 0
Growth Rate [3, 5]: 0
Growth Rate [3, 6]: 0
Growth Rate [3, 8]: 0

Cc1ccc2nc(CNCCCOc3ccccc3)cc(O)c2c1 [UCSF924]
Growth Rate [1, 4]: 0
Growth Rate [1, 10]: 0
Growth Rate [1, 5]: 0
Growth Rate [1, 6]: 0
Growth Rate [1, 8]: 0
Growth Rate [2, 11]: 1
Growth Rate [2, 10]: 0
Growth Rate ([2]; 6 h, replicate number 2, timepoint 6 hours): 1
Growth Rate [2, 5]: 0
Growth Rate [2, 6]: 0
Growth Rate [2, 8]: 0
Growth Rate [3, 4]: 0
Growth Rate [3, 11]: 1
Growth Rate [3, 10]: 0
Growth Rate [3, 5]: 0
Growth Rate [3, 6]: 0
Growth Rate [3, 8]: 0

CNC(=O)c1ccccc1Nc1cc(Nc2ccc(N3CCOCC3)cc2OC)ncc1C(F)(F)F [VS-4718]
Growth Rate [1, 4]: 1
Growth Rate [1, 11]: 0
Growth Rate [1, 10]: 0
Growth Rate [1, 5]: 0
Growth Rate [1, 6]: 0
Growth Rate [1, 8]: 0
Growth Rate [2, 4]: 0
Growth Rate [2, 6]: 1
Growth Rate [2, 8]: 0
Growth Rate [2, 9]: 1
Growth Rate [3, 10]: 0
Growth Rate [3, 5]: 0
Growth Rate [3, 6]: 0
Growth Rate [3, 8]: 0

C=CC(=O)N1CCC([C@@H]2CCNc3c(C(N)=O)c(-c4ccc(Oc5ccccc5)cc4)nn32)CC1 [ZANUBRUTINIB]
Growth Rate [1, 4]: 0
Growth Rate [1, 10]: 0
Growth Rate [1, 5]: 0
Growth Rate [1, 6]: 0
Growth Rate [1, 8]: 0
Growth Rate [2, 4]: 1
Growth Rate [2, 11]: 0
Growth Rate [2, 10]: 0
Growth Rate [2, 5]: 0
Growth Rate [2, 6]: 0
Growth Rate [2, 7]: 1
Growth Rate [2, 8]: 0
Growth Rate [2, 9]: 1
Growth Rate [3, 4]: 0
Growth Rate [3, 5]: 0
Growth Rate [3, 6]: 0
Growth Rate [3, 8]: 0

Reference: ChEMBL document CHEMBL4689842, “EUbOPEN Chemogenomics Library wave 1” (2021)
